Experimental findings from ChEMBL document CHEMBL4130371, “Norepinephrine alkaloids as antiplasmodial agents: Synthesis of syncarpamide and insight into the structure-activity relationships of its analogues as antiplasmodial agents” (Eur J Med Chem, 2017) are described below.

The CC50 is the concentration giving 50% cytotoxicity. A word on the IC50: it is the concentration that gives 50% inhibition.

Series [1] can be described thus: Cytotoxicity against African green monkey Vero cells assessed as reduction in cell viability after 72 hrs by MTT assay. It is filed as cell-based. The conditions noted are these: chlorocebus sabaeus. (Formazan colour is commonly taken as a measure of viable cells.)
In series [2] the test system is Plasmodium falciparum. Put plainly: Antiplasmodial activity against chloroquine-sensitive Plasmodium falciparum 3D7 measured after 72 hrs by SYBR green 1 dye based fluorescence assay. It is filed as functional, organism-based. The conditions noted are these: 3D7, 72 h.
Series [3] concerns Plasmodium falciparum. The series is described as follows: Antiplasmodial activity against chloroquine-resistant Plasmodium falciparum K1 measured after 72 hrs by SYBR green 1 dye based fluorescence assay. It is filed as functional, organism-based. The conditions noted are these: K1, 72 h.
Series [4] can be described thus: Selectivity index, ratio of CC50 for African green monkey Vero cells to IC50 for chloroquine-sensitive Plasmodium falciparum 3D7. It is filed as toxicity. Conditions: read-out: Ratio CC50/IC50.

As for `COc1cc([C@@H]2c3cc4c(cc3[C@H](O)[C@H]3COC(=O)[C@H]23)OCO4)cc(OC)c1OC` [PODOFILOX], the CC50 at 72 h in series [1] came out at 5.74 µM.
In the case of `O=C(/C=C/c1ccccc1)OC[C@H](OC(=O)/C=C/c1ccccc1)c1ccc2ccccc2c1`, the IC50 was > 10 µM in the series on Plasmodium falciparum [2] and 2.15 µM in the series with Plasmodium falciparum [3]. Moreover, the CC50 at 72 h in series [1] is 181 µM. Further, the selectivity ratio in series [4] was < 18.1.
Taken in the same sequence, the figures for `CCCC(=O)O[C@H](CNC(=O)/C=C/c1ccccc1)c1ccc(OC)c(OC)c1` were > 10 µM, > 10 µM, 29.9 µM and < 2.98.
The corresponding values for `CCCC(=O)NC[C@@H](OC(=O)/C=C/c1ccccc1)c1ccc(OC)c(OC)c1` are > 10 µM, > 10 µM, 42.4 µM and < 4.24.
Regarding `COc1ccc([C@@H](CNC(=O)CCc2ccccc2)OC(=O)/C=C/c2ccccc2)cc1OC`, the IC50 in the series on Plasmodium falciparum [2] and in the series on Plasmodium falciparum [3] was > 10 µM in each case. Further, the CC50 at 72 h in series [1] stood at 44.3 µM. For the same molecule, the selectivity ratio in series [4] is < 4.43.
On to `COc1ccc([C@@H](CNC(=O)/C=C/c2ccccc2)OC(=O)CCc2ccccc2)cc1OC`, for which the IC50 in the series on Plasmodium falciparum [2] and in the series on Plasmodium falciparum [3] was > 10 µM throughout. Also, the CC50 at 72 h in series [1] was 36.9 µM. Besides, in series [4], the selectivity ratio is < 3.69.
`COc1ccc([C@H](O)CNC(=O)/C=C/c2ccccc2)cc1`: the figures for the IC50 with Plasmodium falciparum [2] and in the series with Plasmodium falciparum [3] were 6.82 µM and 7.26 µM, respectively.
On to `COc1ccc([C@@H](O)CNC(=O)/C=C/c2ccccc2)cc1` [AEGELINE], for which the IC50 with Plasmodium falciparum [2] and with Plasmodium falciparum [3] was > 10 µM in each case.
`O=C(/C=C/c1ccccc1)OC[C@@H](OC(=O)/C=C/c1ccccc1)c1ccc2ccccc2c1`: the IC50 with Plasmodium falciparum [2] and in the series on Plasmodium falciparum [3] was > 10 µM in each case. Also, in series [1], the 50% cytotoxic concentration (CC50) at 72 h was > 200 µM. Moreover, the selectivity ratio in series [4] came out at 20.
